From patent publication US6887896B1, “7-[(7-Alkoxy)-chrom-3-en-6-yl]-heptatrienoic acid and 7-[(3-alkoxy)-5,6-dihydronaphthalen-2-yl]-heptatrienoic acid derivatives having serum glucose reducing activity” (Allergan, Inc., priority 2003, dated 2005)

What was measured:
RARβ = target: T1, RARβ (Homo sapiens, UniProt P10826); assay: ligand binding assay, RARβ; conditions: Table 9 (Formula F); read-out: RAR β Kd
T1 sequence (P10826 1-455): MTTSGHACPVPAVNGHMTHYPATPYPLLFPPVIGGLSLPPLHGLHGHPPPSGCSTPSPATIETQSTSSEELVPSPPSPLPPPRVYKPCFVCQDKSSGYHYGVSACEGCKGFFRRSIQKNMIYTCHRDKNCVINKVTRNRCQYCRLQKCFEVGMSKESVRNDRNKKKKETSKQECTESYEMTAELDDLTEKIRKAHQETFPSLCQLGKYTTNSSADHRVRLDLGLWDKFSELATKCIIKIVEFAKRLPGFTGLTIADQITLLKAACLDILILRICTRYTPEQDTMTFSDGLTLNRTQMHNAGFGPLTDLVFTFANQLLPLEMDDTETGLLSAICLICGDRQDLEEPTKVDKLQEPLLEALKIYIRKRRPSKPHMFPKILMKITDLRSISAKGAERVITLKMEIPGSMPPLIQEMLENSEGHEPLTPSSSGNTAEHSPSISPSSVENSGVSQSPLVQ
Method in brief: (§1)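 Binding of compounds to several retinoid receptor subtypes was measured. Results are given as Ki values in nanomolar concentration, derived per Cheng et al.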

RXRα = target: T2, RXRα (Homo sapiens, UniProt P19793); assay: holoreceptor transactivation assay, RXRα; type: cell-based; conditions: for EC50: holoreceptor transactivation, read-out: RXR Trans. EC50 α; for Emax: percentage compared to the standard compound, read-out: RXR Trans. efficacy (number in parentheses) α
T2 construct: expressed in transfected cells
T2 sequence (P19793 1-462): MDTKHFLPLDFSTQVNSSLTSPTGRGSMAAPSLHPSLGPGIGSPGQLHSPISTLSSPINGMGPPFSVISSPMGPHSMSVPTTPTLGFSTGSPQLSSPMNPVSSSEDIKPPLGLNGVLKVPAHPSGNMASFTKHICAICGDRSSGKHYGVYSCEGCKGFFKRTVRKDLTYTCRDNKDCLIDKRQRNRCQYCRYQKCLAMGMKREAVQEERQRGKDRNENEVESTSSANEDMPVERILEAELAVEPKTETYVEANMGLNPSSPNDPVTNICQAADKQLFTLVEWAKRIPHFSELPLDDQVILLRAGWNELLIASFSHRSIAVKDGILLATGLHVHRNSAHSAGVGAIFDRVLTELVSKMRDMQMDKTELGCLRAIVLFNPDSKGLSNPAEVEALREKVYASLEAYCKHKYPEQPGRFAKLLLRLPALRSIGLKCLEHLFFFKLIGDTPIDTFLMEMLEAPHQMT
Method in brief: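 Cells carrying either full-length RXR (holoreceptor) or chimeric RAR receptors were exposed to compound and reporter transactivation recorded. Potency was expressed as EC50 in nanomolar. Efficacy was expressed as percent of the maximal response of a reference cyclopropyl-tetramethyltetrahydronaphthalene penta-2,4-dienoic acid.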

RARγ = target: T3, RARγ (Homo sapiens, UniProt P13631); assay: ligand binding assay, RARγ; conditions: Table 9 (Formula F); read-out: RAR γ Kd
T3 sequence (P13631 1-454): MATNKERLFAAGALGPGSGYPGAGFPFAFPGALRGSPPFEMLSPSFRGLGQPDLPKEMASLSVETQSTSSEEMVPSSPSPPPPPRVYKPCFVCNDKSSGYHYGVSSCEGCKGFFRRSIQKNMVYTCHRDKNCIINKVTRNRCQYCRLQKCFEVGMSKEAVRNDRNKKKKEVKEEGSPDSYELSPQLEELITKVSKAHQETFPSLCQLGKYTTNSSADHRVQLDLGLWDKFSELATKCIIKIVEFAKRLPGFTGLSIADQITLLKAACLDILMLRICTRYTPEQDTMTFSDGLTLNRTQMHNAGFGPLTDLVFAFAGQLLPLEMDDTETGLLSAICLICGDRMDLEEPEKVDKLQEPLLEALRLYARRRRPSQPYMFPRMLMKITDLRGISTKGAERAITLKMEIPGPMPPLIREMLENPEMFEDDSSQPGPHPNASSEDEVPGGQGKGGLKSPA
Method in brief: as §1

Kd (RARβ) | EC50 (RXRα) | Emax (RXRα) | Kd (RARγ) | Structure (SMILES)
252 nM | 0.4 nM | 66% | 1000 nM | CCOc1c(\C(C)=C(F)/C=C/C(C)=C/C(=O)O)cc2c(c1Br)C(C)(C)CC=C2C(C)C [Compound A-169, (2E,4E,6E)-7-(4-Bromo-3-ethoxy-8-isopropyl-5,5-dimethyl-5,6-dihydro-naphthalen-2-yl)-6-fluoro-3-methyl-octa-2.4,6-trienoic acid]
56 nM | 0.2 nM | 60% | 507 nM | CCOc1c(\C(CC)=C(F)/C=C/C(C)=C/C(=O)O)cc2c(c1Br)C(C)(C)CC=C2C(C)C [Compound A-170, (2E,4E,6E)-7-(4-Bromo-3-ethoxy-8-isopropyl-5,5-dimethyl-5,6-dihydro-naphthalen-2-yl)-6-fluoro-3-methyl-nona-2,4,6-trienoic acid]
37 nM | 0.9 nM | 24% | 272 nM | CCOc1c(\C(=C(F)/C=C/C(C)=C/C(=O)O)C(C)C)cc2c(c1Br)C(C)(C)CC=C2C(C)C [Compound A-171, (2E,4E,6E)-7-(4-Bromo-3-ethoxy-8-isopropyl-5,5-dimethyl-5,6-dihydro-naphthalen-2-yl)-6-fluoro-3.8-dimethyl-nona-2.4,6-trienoic acid]
112 nM | 0.9 nM | 58% | 517 nM | CCOc1c(\C(CC)=C(F)/C=C/C(C)=C/C(=O)O)cc2c(c1Br)C(C)(C)CC=C2C(C)CC (centres unmarked) [Compound A-176, (2E,4E,6E)-7-(4-Bromo-8-sec-butyl-3-ethoxy-5,5-methyl-5,6-dihydro-naphthalen-2-yl)-6-fluoro-3-methyl-nona-2,4,6-trienoic acid]
79 nM | 0.1 nM | 43% | 449 nM | CCOc1c(\C(CC)=C(F)/C=C/C(C)=C/C(=O)O)cc2c(c1Cl)C(C)(C)CC=C2C(C)C [Compound A-178, (2E,4E,6E)-7-(4-Chloro-3-ethoxy-8-isopropyl-5,5-dimethyl-5,6-dihydronaphthalen-2-yl)-6-fluoro-3-methyl-nona-2,4,6-trienoic acid]

The remaining lines, values behind:

Structure (SMILES) | Kd (RARβ) | EC50 (RXRα) | Emax (RXRα) | Kd (RARγ)
CC(/C=C/C(F)=C(/C)c1cc2c(c(Br)c1OC(C)C)C(C)(C)CC=C2C(C)C)=C\C(=O)O [Compound A-172, (2E,4E,6E)-7-(4-Bromo-3-isopropoxy-8-isopropyl-5,5-dimethyl-5,6-dihydro-naphthalen-2-yl)-6-fluoro-3-methyl-octa-2,4,6-trienoic acid] | 212 nM | 19 nM | 31% | 834 nM
CCOc1c(\C(C)=C(F)/C=C/C(C)=C/C(=O)O)cc2c(c1Br)C(C)(C)CC=C2C(C)(C)C [Compound A-174, (2E,4E,6E)-7-(4-Bromo-8-tert-butyl-3-ethoxy-5,5-dimethyl-5,6-dihydro-naphthalen-2-yl)-6-fluoro-3-methyl-octa-2,4,6-trienoic acid] | 517 nM | 1 nM | 24% | 1600 nM
CCOc1c(\C(C)=C(F)/C=C/C(C)=C/C(=O)O)cc2c(c1Cl)C(C)(C)CC=C2C(C)C [Compound A-177, (2E,4E,6E)-7-(4-Chloro-3-ethoxy-8-isopropyl-5,5-dimethyl-5,6-dihydronaphthalen-2-yl)6-fluoro-3-methyl-octa-2,4,6-trienoic acid] | 443 nM | 0.1 nM | 72% | 1200 nM
